Test results as given in patent publication US9227967B2, “Inhibitor compounds of semicarbazide-sensitive amine oxidases” (Proximagen Limited, priority 2010, dated 2016).
Structures can show the parent of a compound that is named as a salt.

Molecular target: T1, human SSAO (Homo sapiens, UniProt Q16853)
T1 construct: made in house
T1 sequence (Q16853 29-763 limits assumed): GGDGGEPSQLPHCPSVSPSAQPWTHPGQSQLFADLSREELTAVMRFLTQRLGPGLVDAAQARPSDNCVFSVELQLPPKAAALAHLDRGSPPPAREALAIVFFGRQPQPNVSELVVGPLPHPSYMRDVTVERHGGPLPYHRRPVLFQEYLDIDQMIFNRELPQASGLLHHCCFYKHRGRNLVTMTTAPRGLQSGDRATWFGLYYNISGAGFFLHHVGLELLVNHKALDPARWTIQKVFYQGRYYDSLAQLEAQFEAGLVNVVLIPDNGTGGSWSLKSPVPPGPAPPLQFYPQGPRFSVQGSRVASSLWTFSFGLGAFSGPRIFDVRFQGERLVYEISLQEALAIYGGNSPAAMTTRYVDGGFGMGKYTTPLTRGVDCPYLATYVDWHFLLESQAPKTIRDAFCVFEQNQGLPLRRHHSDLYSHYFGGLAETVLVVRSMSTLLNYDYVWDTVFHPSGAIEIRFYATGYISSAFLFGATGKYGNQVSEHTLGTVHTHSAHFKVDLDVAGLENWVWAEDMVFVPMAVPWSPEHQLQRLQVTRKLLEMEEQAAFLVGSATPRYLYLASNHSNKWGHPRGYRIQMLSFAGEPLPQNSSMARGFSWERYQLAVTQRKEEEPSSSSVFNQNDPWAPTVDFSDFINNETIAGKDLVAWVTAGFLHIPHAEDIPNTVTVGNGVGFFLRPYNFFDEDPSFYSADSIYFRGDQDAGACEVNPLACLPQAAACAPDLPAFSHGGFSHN
Assay: SSAO enzyme inhibition assay (benzylamine substrate; HRP-coupled hydrogen peroxide detection or 14C-benzaldehyde detection)
Format: biochemical
Conditions: purified recombinantly expressed human SSAO, benzylamine as substrate, r.t.; read-out: SSAO inhibitory activity IC50
Experimental: All primary assays were performed at r.t. with purified recombinantly expressed human SSAO. Enzyme was prepared essentially as described in Öhman et al. (Protein Expression and Purification 46 (2006) 321-331). In addition, secondary- and selectivity assays were performed using SSAO prepared from various tissues or purified rat recombinant SSAO. The enzyme activity was assayed with benzylamine as substrate by measuring either benzaldehyde production, using ^14C-labeled substrate, or by utilizing the production of hydrogen peroxide in a horseradish peroxidise (HRP) coupled reaction. Briefly, test compounds were dissolved in dimethyl sulfoxide (DMSO) to a concentration of 10 mM. Dose-response measurements were assayed by either creating 1:10 serial dilutions in DMSO to produce a 7 point curve or by making 1:3 serial dilutions in DMSO to produce 11 point curves. The top concentrations were adjusted depending on the potency of the compounds and subsequent dilution in reaction buffer yielded a final DMSO concentration ≦2%.
In a horseradish peroxidise (HRP) coupled reaction, hydrogen peroxide oxidation of 10-acetyl-3,7-dihydroxyphenoxazine produced resorufin, which is a highly fluorescent compound (Zhout and Panchuk-Voloshina. Analytical Biochemistry 253 (1997) 169-174; Amplex® Red Hydrogen Peroxide/peroxidise Assay kit, Invitrogen A22188). Enzyme and compounds in 50 mM sodium phosphate, pH 7.4 were set to pre-incubate in flat-bottomed microtiter plates for approximately 15 minutes before initiating the reaction by addition of a mixture of HRP, benzylamine and Amplex reagent. Benzylamine concentration was fixed at a concentration corresponding to the Michaelis constant, determined using standard procedures. Fluorescence intensity was then measured at several time points during 1-2 hours, exciting at 544 nm n and reading the emission at 590 nm. For the human SSAO assay final concentrations of the reagents in the assay wells were: SSAO enzyme 1 μg/ml, benzylamine 100 μM, Amplex reagent 20 μM, HRP 0.1 U/mL and varying concentrations of test compound. The inhibition was measured as % decrease of the signal compared to a control without inhibitor (only diluted DMSO). The background signal from a sample containing no SSAO enzyme was subtracted from all data points. Data was fitted to a four parameter logistic model and IC50 values were calculated using the GraphPad Prism 4 or XLfit 4 programs.
SSAO activity was assayed using 14C-labeled benzylamine and analysed by measuring radioactive benzaldehyde. In a white 96-well optiplate (Packard), 20 μL of diluted test compound was pre-incubated at r.t. with 20 μL SSAO enzyme for approximately 15 minutes with continuous agitation. All dilutions were made with PBS. The reaction was initiated by adding 20 μL of the benzylamine substrate solution containing [7-14C] Benzylamine hydrochloride (CFA589, GE Healthcare). The plate was incubated for 1 hour as above after which the reaction was stopped by acidification (10 μL 1 M HCl). Then 90 μL Micro Scint-E solution (Perkin-Elmer) was added to each well and the plate was continuously mixed for 15 minutes. Phase separation occurred instantly and activity was read in a Topcount scintillation counter (Perkin-Elmer). In the final reaction well, human recombinant SSAO concentration was 10 μg/ml. In order to optimize sensitivity, the substrate concentration was decreased as compared to the HRP coupled assay in order to get a higher fraction of radioactive product. In the human SSAO assay, benzylamine concentration was 40 μM (0.2 μCi/mL). Data was analysed as above.

Structure (SMILES) | IC50 [µM]
Clc1ccc(-n2nc(N3CCNCC3)c3ccncc32)cc1 [Compound 70, 1-[1-(4-Chlorophenyl)-1H-pyrazolo[3,4-c]pyridin-3-yl]piperazine] | 0.5 to 2.5
Clc1ccc(-n2nc(N3CCN(Cc4cc[nH]n4)CC3)c3ccncc32)cc1 [Compound 75, 1-[1-(4-Chlorophenyl)-1H-pyrazolo[3,4-c]pyridin-3-yl]-4-(1H-pyrazol-3-ylmethyl)piperazine] | 0.1 to 0.5
Fc1ccc(-n2nc(C3CCOCC3)c3ccncc32)cc1 [Compound 83, 1-(4-Fluorophenyl)-3-(oxan-4-yl)-1H-pyrazolo[3,4-c]pyridine] | 0.1 to 0.5
Clc1ccc(-n2nc(C3CCNCC3)c3ccncc32)cc1 [Compound 84, 4-[1-(4-Chlorophenyl)-1H-pyrazolo[3,4-c]pyridin-3-yl]piperidine] | 0.1 to 0.5
Fc1cncc2c1c(C1CCOCC1)nn2-c1ccc(Cl)cc1 [Compound 88, 1-(4-Chlorophenyl)-4-fluoro-3-(oxan-4-yl)-1H-pyrazolo[3,4-c]pyridine] | 0.5 to 2.5
Clc1ccc(-n2nc(C3CCN(Cc4cc[nH]n4)CC3)c3ccncc32)cc1 [Compound 89, 4-[1-(4-Chlorophenyl)-1H-pyrazolo[3,4-c]pyridin-3-yl]-1-(1H-pyrazol-3-ylmethyl)piperidine] | 0.1 to 0.5
CCCCN1CCC(c2nn(-c3ccc(Cl)cc3)c3cnccc23)CC1 [Compound 90, 1-Butyl-4-[1-(4-chlorophenyl)-1H-pyrazolo[3,4-c]pyridin-3-yl]piperidine] | 0.5 to 2.5
CN(C)C(=O)N1CCC(c2nn(-c3ccc(Cl)cc3)c3cnccc23)CC1 [Compound 91, 4-[1-(4-Chlorophenyl)-1H-pyrazolo[3,4-c]pyridin-3-yl]-N,N-dimethylpiperidine-1-carboxamide] | 0.1 to 0.5
COc1cncc2c1c(C1CCOCC1)nn2-c1ccc(Cl)cc1 [Compound 94, 1-(4-Chlorophenyl)-4-methoxy-3-(oxan-4-yl)-1H-pyrazolo[3,4-c]pyridine] | 0.5 to 2.5
Oc1cncc2c1c(C1CCOCC1)nn2-c1ccc(Cl)cc1 [Compound 95, 1-(4-Chlorophenyl)-3-(oxan-4-yl)-1H-pyrazolo[3,4-c]pyridin-4-ol] | 0.1 to 0.5
COc1cc2c(C3CCOCC3)nn(-c3ccc(Cl)cc3)c2cn1 [Compound 96, 1-(4-Chlorophenyl)-5-methoxy-3-(oxan-4-yl)-H-pyrazolo[3,4-c]pyridine] | 0.5 to 2.5
Oc1cc2c(C3CCOCC3)nn(-c3ccc(Cl)cc3)c2cn1 [Compound 97, 1-(4-Chlorophenyl)-3-(oxan-4-yl)-1H,5H,6H-pyrazolo[3,4-c]pyridin-5-one] | 0.1 to 0.5
Clc1ccc(-n2cc(C3CCOCC3)c3ncncc32)cc1 [Compound 98, 5-(4-Chlorophenyl)-7-(oxan-4-yl)-5H-pyrrolo[3,2-d]pyrimidine] | 0.1 to 0.5
Clc1ccc(-n2nc(C3CCOCC3)c3ncncc32)cc1 [Compound 99, 1-(4-Chlorophenyl)-3-(oxan-4-yl)-1H-pyrazolo[4,3-d]pyrimidine] | 0.5 to 2.5
Fc1ccc(-n2cc(C3CCOCC3)c3ccncc32)cc1 [Compound 100, 1-(4-Fluorophenyl)-3-(oxan-4-yl)-1H-pyrrolo[2,3-c]pyridine] | 0.1 to 0.5
Clc1ccc(-n2cc(C3CCOCC3)c3ccncc32)cc1 [Compound 101, 1-(4-Chlorophenyl)-3-(oxan-4-yl)-1H-pyrrolo[2,3-c]pyridine] | < 0.1
Cc1ccc(-n2cc(C3CCOCC3)c3ccncc32)cc1 [Compound 102, 1-(4-Methylphenyl)-3-(oxan-4-yl)-1H-pyrrolo[2,3-c]pyridine] | < 0.1

The remaining lines, values ahead:

IC50 [µM] | Structure (SMILES)
0.1 to 0.5 | NC1CCN(c2nn(-c3ccc(Cl)cc3)c3cnccc23)CC1 [Compound 71, 1-[1-(4-Chlorophenyl)-1H-pyrazolo[3,4-c]pyridin-3-yl]piperidin-4-amine]
0.1 to 0.5 | Cc1ccc(-n2nc(N3CCOC(CN)C3)c3ccncc32)cc1 (centres unmarked) [Compound 72, {4-[1-(4-Methylphenyl)-1H-pyrazolo[3,4-c]pyridin-3-yl]morpholin-2-yl}methanamine]
< 0.1 | Cc1ccc(-n2nc(N3CCC(O)CC3)c3ccncc32)cc1 [Compound 74, 1-[1-(4-Methylphenyl)-1H-pyrazolo[3,4-c]pyridin-3-yl]piperidin-4-ol]
0.1 to 0.5 | NCCC(=O)N1CCN(c2nn(-c3ccc(Cl)cc3)c3cnccc23)CC1 [Compound 76]
0.5 to 2.5 | Cc1ccc(-n2nc(N3CCOCC3C(N)=O)c3ccncc32)cc1 (centres unmarked) [Compound 77, 4-[1-(4-Methylphenyl)-1H-pyrazolo[3,4-c]pyridin-3-yl]morpholine-3-carboxamide]
0.5 to 2.5 | Cc1ccc(-n2nc(N3CCOCC3C(=O)N3CCOCC3)c3ccncc32)cc1 (centres unmarked) [Compound 78, 4-[1-(4-Methylphenyl)-1H-pyrazolo[3,4-c]pyridin-3-yl]-3-[(morpholin-4-yl)carbonyl]morpholine]
0.1 to 0.5 | Cc1ccc(-n2nc(N3CCOCC3C(=O)NCCN)c3ccncc32)cc1 (centres unmarked) [Compound 79, N-(2-Aminoethyl)-4-[1-(4-methylphenyl)-1H-pyrazolo[3,4-c]pyridin-3-yl]morpholine-3-carboxamide dihydrochloride]
0.1 to 0.5 | Clc1ccc(-n2nc(C3CCOCC3)c3ccncc32)cc1 [Compound 80, 1-(4-Chlorophenyl)-3-(oxan-4-yl)-1H-pyrazolo[3,4-c]pyridine]
0.1 to 0.5 | Cc1ccc(-n2nc(C3CCOC3)c3ccncc32)cc1 (centres unmarked) [Compound 81, 1-(4-Methylphenyl)-3-(oxolan-3-yl)-1H-pyrazolo[3,4-c]pyridine]
0.1 to 0.5 | Cc1ccc(-n2nc(C3CCOCC3)c3ccncc32)cc1 [Compound 82, 1-(4-Methylphenyl)-3-(oxan-4-yl)-1H-pyrazolo[3,4-c]pyridine]
0.5 to 2.5 | Cc1ccc(-n2nc(C3COCCN3)c3ccncc32)cc1 (centres unmarked) [Compound 85, 3-[1-(4-Methylphenyl)-1H-pyrazolo[3,4-c]pyridin-3-yl]morpholine]
0.5 to 2.5 | Cc1ccc(-n2nc(C3CNCCO3)c3ccncc32)cc1 (centres unmarked) [Compound 86, 2-[1-(4-Methylphenyl)-1H-pyrazolo[3,4-c]pyridin-3-yl]morpholine]
0.1 to 0.5 | Cc1ccc(-n2nc(C3CCC(=O)NC3)c3ccncc32)cc1 (centres unmarked) [Compound 87, 5-[1-(4-Methylphenyl)-1H-pyrazolo[3,4-c]pyridin-3-yl]piperidin-2-one]
0.1 to 0.5 | CCOC(=O)N1CCC(c2nn(-c3ccc(Cl)cc3)c3cnccc23)CC1 [Compound 92, Ethyl 4-[1-(4-chlorophenyl)-1H-pyrazolo[3,4-c]pyridin-3-yl]piperidine-1-carboxylate]
0.1 to 0.5 | NCCC(=O)N1CCC(c2nn(-c3ccc(Cl)cc3)c3cnccc23)CC1 [Compound 93, 3-Amino-1-{4-[1-(4-chlorophenyl)-1H-pyrazolo[3,4-c]pyridin-3-yl]piperidin-1-yl}propan-1-one dihydrochloride]
